Laboratory results: PubChem BioAssay (NCI)
Several values for one entry are separate records, joined by “and”; a condition that tells them apart may be missing. Equal entries are not always repeated.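 Five concentrations, 48 hours, 96-well plates. GI50 = concentration required for 50% inhibition of growth. TGI denotes the concentration required for complete inhibition of growth.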

Experiments:
Test in all cases: growth of human tumour cells (NCI), 48 h
OVCAR-8 ovarian = system: OVCAR-8 ovarian
K-562 leukemia = system: K-562 leukemia
CAKI-1 renal = system: CAKI-1 renal
RPMI-8226 leukemia = system: RPMI-8226 leukemia
HS 578T breast = system: HS 578T breast
HCC-2998 colon = system: HCC-2998 colon
SK-MEL-2 melanoma = system: SK-MEL-2 melanoma
SNB-19 CNS = system: SNB-19 CNS
RXF 393 renal = system: RXF 393 renal
HOP-92 NSCLC = system: HOP-92 NSCLC

Q: How did the TGI (OVCAR-8 ovarian) turn out when `C/C=C/C1=CN2C(=O)c3cc(OC4OC(C)C(NC)C(C)(O)C4O)c(C)c(O)c3N=C[C@@H]2C1` (stereo partly drawn) was run?
A: > 100 µM

Q: What about the GI50 (K-562 leukemia) of the same compound?
A: 0.0431 µM and < 0.01 µM

Q: What about the TGI (K-562 leukemia) of the same compound?
A: > 100 µM

Q: What about the GI50 (CAKI-1 renal) of the same compound?
A: 0.0279 µM and < 0.01 µM

Q: What about the GI50 (RPMI-8226 leukemia) of the same compound?
A: 0.0457 µM and < 0.01 µM

Q: `CSC1(CC(=O)N2CCCCC2)C(=O)Nc2ccccc21` (stereo not drawn) was tested. Which TGI (K-562 leukemia) did it give?
A: > 100 µM

Q: And the TGI (HS 578T breast)?
A: > 100 µM

Q: What about the TGI (HCC-2998 colon) of the same compound?
A: > 100 µM

Q: And the TGI (SK-MEL-2 melanoma)?
A: > 100 µM

Q: And the TGI (SNB-19 CNS)?
A: > 100 µM

Q: What about the TGI (RPMI-8226 leukemia) of the same compound?
A: > 100 µM

Q: Which results are given for `COc1cc(Nc2nc3cc(C(F)(F)F)ccc3nc2C)cc(OC)c1OC`?
A: TGI (OVCAR-8 ovarian): 24.5 µM; TGI (K-562 leukemia): 20.1 µM; TGI (CAKI-1 renal): 20.8 µM; TGI (HCC-2998 colon): 12.6 µM; TGI (SK-MEL-2 melanoma): 23.6 µM; TGI (RXF 393 renal): 17.9 µM; TGI (HOP-92 NSCLC): 0.95 µM

Q: For `FC(F)(F)c1nc(-c2ccccc2)oc1Sc1oc(-c2ccccc2)nc1C(F)(F)F`, which TGI (OVCAR-8 ovarian) is on record?
A: > 100 µM

Q: What about the TGI (K-562 leukemia) of the same compound?
A: > 100 µM

Q: And the TGI (CAKI-1 renal)?
A: 65.7 µM

Q: And the TGI (HCC-2998 colon)?
A: > 100 µM

Q: And the TGI (SK-MEL-2 melanoma)?
A: > 100 µM

Q: And the TGI (RXF 393 renal)?
A: > 100 µM

Q: What about the TGI (SNB-19 CNS) of the same compound?
A: > 100 µM

Q: What about the TGI (HOP-92 NSCLC) of the same compound?
A: 94.6 µM

Q: And the TGI (RPMI-8226 leukemia)?
A: > 100 µM

Q: `O=C(O)[C@@H](NS(=O)(=O)c1ccc([N+](=O)[O-])cc1)c1ccccc1` was tested. Which TGI (OVCAR-8 ovarian) did it give?
A: > 100 µM

Q: What about the TGI (K-562 leukemia) of the same compound?
A: > 100 µM

Q: And the TGI (CAKI-1 renal)?
A: > 100 µM

Q: What about the TGI (HCC-2998 colon) of the same compound?
A: > 100 µM

Q: And the TGI (SK-MEL-2 melanoma)?
A: > 100 µM

Q: And the TGI (RXF 393 renal)?
A: > 100 µM

Q: What about the TGI (SNB-19 CNS) of the same compound?
A: > 100 µM

Q: What about the TGI (HOP-92 NSCLC) of the same compound?
A: > 100 µM

Q: What about the TGI (RPMI-8226 leukemia) of the same compound?
A: > 100 µM

Q: For `c1ccc2c(c1)[nH]c1c2ncc2[nH]c3ccccc3c21`, which TGI (OVCAR-8 ovarian) is on record?
A: 17.2 µM

Q: And the TGI (K-562 leukemia)?
A: 8.3 µM

Q: What about the TGI (CAKI-1 renal) of the same compound?
A: 13.7 µM

Q: And the TGI (HCC-2998 colon)?
A: 7.07 µM

Q: And the TGI (SK-MEL-2 melanoma)?
A: 33.7 µM

Q: What about the TGI (SNB-19 CNS) of the same compound?
A: 10.7 µM

Q: What about the TGI (HOP-92 NSCLC) of the same compound?
A: 8.71 µM

Q: What about the TGI (RPMI-8226 leukemia) of the same compound?
A: 6.27 µM

Q: With `CC(C)c1cccc(C(C)C)c1NC(=O)CCC(=O)NN` as the compound, how does the TGI (OVCAR-8 ovarian) read?
A: > 100 µM

Q: What about the TGI (K-562 leukemia) of the same compound?
A: > 100 µM

Q: And the TGI (CAKI-1 renal)?
A: > 100 µM

Q: And the TGI (HCC-2998 colon)?
A: > 100 µM

Q: And the TGI (SNB-19 CNS)?
A: > 100 µM

Q: What about the TGI (HOP-92 NSCLC) of the same compound?
A: > 100 µM

Q: What about the TGI (RPMI-8226 leukemia) of the same compound?
A: > 100 µM

Q: Which results are given for `Cn1sc2ccccc2c1=S`?
A: TGI (OVCAR-8 ovarian): 22.3 µM; TGI (K-562 leukemia): 26.1 µM; TGI (CAKI-1 renal): 16.9 µM; TGI (HCC-2998 colon): 45.9 µM; TGI (SK-MEL-2 melanoma): 56.5 µM; TGI (RXF 393 renal): 7.95 µM; TGI (SNB-19 CNS): 31.4 µM; TGI (HOP-92 NSCLC): 36.1 µM; TGI (RPMI-8226 leukemia): 18.7 µM

Q: What does the source list for `CCCN1C(=O)CNC(=O)c2[nH]cnc21`?
A: TGI (OVCAR-8 ovarian): > 100 µM; TGI (K-562 leukemia): > 100 µM; TGI (CAKI-1 renal): > 100 µM; TGI (HCC-2998 colon): > 100 µM; TGI (SK-MEL-2 melanoma): > 100 µM; TGI (RXF 393 renal): > 100 µM; TGI (SNB-19 CNS): > 100 µM; TGI (HOP-92 NSCLC): > 100 µM; TGI (RPMI-8226 leukemia): > 100 µM

Q: Which TGI (OVCAR-8 ovarian) does the source give for `Nc1nc(=Nc2ccccc2)ss1` here?
A: > 100 µM

Q: And the TGI (K-562 leukemia)?
A: > 100 µM

Q: And the TGI (CAKI-1 renal)?
A: > 100 µM

Q: What about the TGI (HCC-2998 colon) of the same compound?
A: > 100 µM

Q: And the TGI (RXF 393 renal)?
A: > 100 µM

Q: And the TGI (SNB-19 CNS)?
A: > 100 µM

Q: What about the TGI (HOP-92 NSCLC) of the same compound?
A: > 100 µM

Q: What about the TGI (RPMI-8226 leukemia) of the same compound?
A: > 100 µM

Q: What does the source list for `COc1ccc(C2C3=C(COC3=O)Oc3cc4c(cc32)OCO4)cc1` (stereo not drawn)?
A: TGI (OVCAR-8 ovarian): > 100 µM; TGI (K-562 leukemia): > 100 µM; TGI (CAKI-1 renal): > 100 µM; TGI (SK-MEL-2 melanoma): > 100 µM; TGI (RXF 393 renal): > 100 µM; TGI (SNB-19 CNS): > 100 µM; TGI (HOP-92 NSCLC): 68.1 µM; TGI (RPMI-8226 leukemia): > 100 µM

Q: With `COc1ccccc1NC(=O)C(CC(C(=O)Nc1ccccc1OC)/C(C)=N/NC(=O)c1ccccc1O)/C(C)=N/NC(=O)c1ccccc1O` (stereo not drawn) as the compound, how does the TGI (OVCAR-8 ovarian) read?
A: > 100 µM

Q: What about the TGI (K-562 leukemia) of the same compound?
A: > 100 µM

Q: What about the TGI (CAKI-1 renal) of the same compound?
A: > 100 µM

Q: And the TGI (HCC-2998 colon)?
A: > 100 µM

Q: What about the TGI (SK-MEL-2 melanoma) of the same compound?
A: > 100 µM

Q: And the TGI (RXF 393 renal)?
A: > 100 µM

Q: And the TGI (SNB-19 CNS)?
A: > 100 µM

Q: And the TGI (HOP-92 NSCLC)?
A: > 100 µM

Q: What about the TGI (RPMI-8226 leukemia) of the same compound?
A: > 100 µM

Q: What does the source list for `CCOC(=O)c1cc(OC(=O)CC)c2c(OC)ccc(OC)c2c1`?
A: TGI (K-562 leukemia): > 100 µM; TGI (CAKI-1 renal): > 100 µM; TGI (HCC-2998 colon): > 100 µM; TGI (SK-MEL-2 melanoma): > 100 µM; TGI (RXF 393 renal): 69.7 µM; TGI (SNB-19 CNS): > 100 µM; TGI (RPMI-8226 leukemia): > 100 µM

Q: Which GI50 (OVCAR-8 ovarian) does the source give for `COC(C)(C)[C@H](O)C(O)CC(C)[C@@H]1CCC23CC12CCC1[C@@]2(C)CCC(OC(C)=O)C(C)(C)C2CC(OC2OC(COC(C)=O)C(O)C(O)C2O)[C@]13C` (stereo partly drawn) here?
A: 6.13 µM

Q: What about the TGI (OVCAR-8 ovarian) of the same compound?
A: 14 µM and 20.7 µM

Q: What about the GI50 (K-562 leukemia) of the same compound?
A: 4.68 µM

Q: And the TGI (K-562 leukemia)?
A: 10.6 µM and 21.4 µM

Q: And the GI50 (CAKI-1 renal)?
A: 8.27 µM

Q: What about the TGI (CAKI-1 renal) of the same compound?
A: 10.2 µM and 20.2 µM

Q: What about the TGI (HCC-2998 colon) of the same compound?
A: 4.94 µM

Q: And the GI50 (SK-MEL-2 melanoma)?
A: 4.34 µM

Q: What about the TGI (SK-MEL-2 melanoma) of the same compound?
A: 17.6 µM and 14.8 µM

Q: What about the TGI (RXF 393 renal) of the same compound?
A: 11.8 µM

Q: What about the TGI (SNB-19 CNS) of the same compound?
A: 14.5 µM and 20 µM

Q: And the GI50 (HOP-92 NSCLC)?
A: 4.37 µM

Q: And the TGI (HOP-92 NSCLC)?
A: 11.6 µM and 16.9 µM

Q: What about the GI50 (RPMI-8226 leukemia) of the same compound?
A: 3.77 µM

Q: And the TGI (RPMI-8226 leukemia)?
A: 6.54 µM and 17.1 µM

Q: `O=C(C=Nc1ccccc1C(=O)[O-])c1cccs1.O=C(C=Nc1ccccc1C(=O)[O-])c1cccs1.[Zn+2]` was tested. Which TGI (OVCAR-8 ovarian) did it give?
A: > 100 µM

Q: And the TGI (K-562 leukemia)?
A: 88 µM

Q: And the TGI (CAKI-1 renal)?
A: > 100 µM

Q: What about the TGI (HCC-2998 colon) of the same compound?
A: > 10 µM

Q: What about the TGI (SK-MEL-2 melanoma) of the same compound?
A: 52.1 µM

Q: And the TGI (SNB-19 CNS)?
A: > 100 µM

Q: What about the TGI (HOP-92 NSCLC) of the same compound?
A: 64 µM

Q: How did the TGI (OVCAR-8 ovarian) turn out when `Nc1ncnc2c1ncn2C1OC(COC2C(CO)OC(OC(C(=O)O)C(O)C(OP(=O)(O)O)C(O)C(=O)O)C(O)C2O)C(O)C1O` (stereo not drawn) was run?
A: > 100 µM

Q: And the TGI (K-562 leukemia)?
A: > 100 µM

Q: And the TGI (HS 578T breast)?
A: 91.2 µM

Q: What about the TGI (CAKI-1 renal) of the same compound?
A: > 100 µM

Q: And the TGI (HCC-2998 colon)?
A: > 100 µM

Q: And the TGI (SK-MEL-2 melanoma)?
A: > 100 µM

Q: What about the TGI (SNB-19 CNS) of the same compound?
A: > 100 µM

Q: And the TGI (RPMI-8226 leukemia)?
A: > 100 µM

Q: Which GI50 (OVCAR-8 ovarian) does the source give for `CC[CH2][Sn]([CH2]CC)([O]C(=O)Cc1ccc(F)cc1)[O][Sn]([CH2]CC)([CH2]CC)[O]C(=O)Cc1ccc(F)cc1` here?
A: 0.278 µM

Q: And the TGI (OVCAR-8 ovarian)?
A: 1.41 µM

Q: What about the GI50 (K-562 leukemia) of the same compound?
A: 0.0266 µM

Q: And the TGI (K-562 leukemia)?
A: 1.81 µM

Q: What about the GI50 (CAKI-1 renal) of the same compound?
A: 0.11 µM

Q: What about the TGI (CAKI-1 renal) of the same compound?
A: 0.481 µM

Q: And the GI50 (HCC-2998 colon)?
A: 0.439 µM

Q: What about the TGI (HCC-2998 colon) of the same compound?
A: 1.7 µM

Q: And the GI50 (SK-MEL-2 melanoma)?
A: 0.115 µM

Q: And the TGI (SK-MEL-2 melanoma)?
A: 0.393 µM

Q: And the GI50 (RXF 393 renal)?
A: 0.0286 µM

Q: And the TGI (RXF 393 renal)?
A: 0.126 µM

Q: And the GI50 (SNB-19 CNS)?
A: 0.443 µM

Q: And the TGI (SNB-19 CNS)?
A: 1.35 µM

Q: What about the GI50 (HOP-92 NSCLC) of the same compound?
A: 0.174 µM

Q: And the TGI (HOP-92 NSCLC)?
A: 0.522 µM

Q: And the GI50 (RPMI-8226 leukemia)?
A: 0.0382 µM
